In experiment [1] the test system is excitor amino-acid receptors of cortical membranes ("forebrain") of rats. As to the kind of experiment: Inhibition of the specific binding of [3H]-glutamate to rat forebrain membranes. The note with it: for Activity in inhibiting the binding of glutamate (in words): rat cortical membranes; for IC50: rat forebrain membranes, 20 min, 37° C., pH 7.1. An excerpt:
6) Studies on binding to rat "forebrain" membranes
L-glutamate recognizes all three receptor subtypes indicated above, al though not selectively. It is therefore desirable to evaluate the capacity of each of the compounds of the invention to interact with the excitor amino-acid receptors of the CNS.
"Forebrain", that is, the cerebral cortex and the hippocampus, were selected as the receptor tissue and ^3 H-L-glutamate as the ligand for marking this heterogenous receptor population.
Rat cerebral tissue (forebrain without striated tissue) was therefore homogeneised cold in tris buffer at pH 7.4. After washing and centrifuging, the final pellet was resuspended in 50 volumes of tris HCl binding buffer at 7.1. 0.5 ml of receptor membrane thus obtained were then incubated, together with the radioactive tracer and the compounds under test, for 20 min at 37° C. The reaction was terminated by separating the bound radio-ligand from the free radio-ligand by filteration on glass-fibre filters which, after washing, were counted in a liquid scintillator (a β-counter) thus determining the radioactivity associated with the pellet. The specific binding was determined as the difference between the binding in the absence and in the presence of cold 3.6 mM L-glutamate.

Experiment [2] can be described thus: Memory-enhancement activity in the passive avoidance test in the rat. The experiment is classed as in vivo, rat (male Wistar). The note with it: rat; for change in vivo at 0.1 mg/kg / change in vivo at 1 mg/kg / change in vivo at 10 mg/kg: 96 h, 6 treatments, read-out: % variation vs controls (FS) in step through latency; for change in vivo at 0.1 mg/kg: 0.1 mg/kg IP; for change in vivo at 0.1 mg/kg / change in vivo at 1 mg/kg / change in vivo at 10 mg/kg / Activity in increasing the avoidance time (in words): retest on the 4th day; for change in vivo at 1 mg/kg: 1 mg/kg IP; for change in vivo at 10 mg/kg: 10 mg/kg IP; for ED30 / Activity in increasing the avoidance time (in words): IP; for ED30: read-out: ED30 (dose increasing the latency time (STL) by 30%). Here is the method:
2) Memory-enhancement activity in the "passive avoidance" test in the rat
A "passive avoidance" model was used, which required a single "step-through" situation and a retest of the "retention memory" 72 h after the training.
Male Wistar rats which weighed about 200 g and had not fasted, were used. The test consisted of evaluating the degree of memory of an animal after it had been trained as follows.
The equipment used was a shuttle box modified thus: one compartment was lined with black card including the cover, and a 60 W lamp was disposed above the other, spaced from the grid floor by about 40 cm. The two compartments were divided by an automatic guillotine-like door. Each animal was placed in the compartment in the light with the guillotine-likedoor open. From this moment, the time taken by the rat to go into the compartment lined with black card (the dark compartment) (the step-throughlatency=STL) was measured. The animals which took more than 30 sec to go into the dark were discarded. Once they had gone into the dark, the door was lowered automatically and a=0.1 mA shock lasting 5 sec (a foot shock=FS) started. After 10 sec, the animal was removed from the shuttle box.
Upon completion, the animals were selected randomly in homogeneous groups and treated with the products.
The retest to determine memory was made after 72 hours. The products were administered chronically in the preselected manner twice per day and the last treatment 30 min before the retest (6 treatments altogether).
The memory-retention test (the retest) consisted of placing each animal, treated 30 min beforehand with a physiological solution or with the product, in the compartment which was not lined with black card for 30 sec.
The results are expressed as the percentage variation of the STL (in seconds) of the groups treated in comparison with the control group by means of this formula: [formula]

Experiment [3] is described as follows: Antiamnesic activity in the mouse (step-down passive avoidance, amnesia induced by ECS). It is filed as in vivo, mouse (CD1 male). The note with it: mouse; for change in vivo at 3 mg/kg: 3 mg/kg OS; for change in vivo at 10 mg/kg: 10 mg/kg OS; for change in vivo at 30 mg/kg: 30 mg/kg OS; for ED50 / Antiamnesic activity (in words): OS; for ED50: 60 min before training, read-out: ID50 (antiamnesic activity, dose inhibiting the amnesic effect of the ECS by 50%); for change in vivo at 0.1 mg/kg: 0.1 mg/kg OS; for change in vivo at 1 mg/kg: 1 mg/kg OS. The text has this:
1) Antiamnesic activity in the mouse (step-down passive avoidance)
An electroconvulsive shock (ECS) produces retrograde amnesia in the test animal if applied immediately after the training received, for example, a harmful stimulus of a suitable intensity.
The object of the experiment was to study the effects of the compounds of the invention in antagonizing the amnesic effect of an ECS on the short-term memory consolidation process.
CD1 male mice which weighed about 30-35 g, and had not fasted were used. The equipment used was a rectangular plexiglass cage (21×21×40cm) with an electrifiable grid floor and a wooden cube (4×4×4 cm) fixed in the centre of the cage. The animals were treated orally with the product under test 60 minutes before the training.
The mouse was placed delicately on the wooden cube and the time it took to descend to the grid floor (SDL=step-down latency) was measured. When all four of the animal's paws were resting on the floor the continuous 0.2 mA shock started and the time taken by The mouse to remount the wooden cube (EL=escape latency) was measured.
The animals with an SDL of between 3 and 30 sec and with an EL of between 3 and 60 sec were used for retesting.
Immediately afterwards, a transcorneal ECS was applied with the use of the following parameters: amperage 15 mA, frequency 50 Hz, duration of the train of pulses 0.4 sec. duration of each individual pulse 1 msec., interval between pulses 20 msec. As well as the groups treated with ECS, a control group without ECS and a control group with ECS were used.
The retest was carried out after 24 h.
The results are expressed as the percentage variation of the SDL of the treated groups in comparison with the control group by means of this formula: [formula]

Experiment [4] is described as follows: Antidepressant activity in the behavioural despair test in the mouse. It is filed as in vivo, mouse (male CD1). The note with it: for inhibition in vivo at 3 mg/kg / inhibition in vivo at 10 mg/kg / inhibition in vivo at 30 mg/kg / inhibition in vivo at 1 mg/kg: 5 min, 5 minutes, read-out: Decrease in immobility (as %) vs the controls; for inhibition in vivo at 3 mg/kg: 3 mg/kg IP; for inhibition in vivo at 10 mg/kg: 10 mg/kg IP; for inhibition in vivo at 30 mg/kg: 30 mg/kg IP; for ED50 / Antidepressant activity (in words) / ED50 (dose antagonising immobility time by 50%): IP; for ED50: read-out: ED50 (dose antagonising immobility time by 50%); for inhibition in vivo at 1 mg/kg: 1 mg/kg IP. An excerpt:
5) Antidepressant activity in the "behavioural despair test" Another interesting aspect of the pharmacological activity of these products is the potent antidepressant activity which some of them display in an experimental model in the mouse, in which a state of depression is induced experimentally by the method of Porsolt et al. (Arch. Int. Pharmacodyn. 229, p. 327-336 (1977)). Male CDl mice which weighed about 20-25 g and had not fasted were used. The test consisted of inducing a state of depression in the animal which was subjected to forced swimming in a glass cylinder from which it could not escape. After a short period of vigorous activity the mouse adopted a characteristic posture of immobility which was easily identifiable; this immobility is reduced by antidepressant drugs. 1 l glass beakers, filled to 700 ml with water at a temperature of 25° C. were used for the test. The mice, 8 per group, were treated intraperitoneally with the drug under test, 30 minutes before the test. At time 0, each animal was immersed in a beaker and, after one minute during which all moved about swimming vigorously in order to escape, regardless of treatment, the observer, who was unaware of the treatment, assigned the following points: 0=animal immobile 1=minimum movement to remain afloat 2=vigorous swimming The greater the antidepressant activity of the drug, the more the animals will move about in order to try to escape from the water. The points were assigned every 15 sec for a total period of 5 min with a total of 20 observations. The antidepressant activity was determined with the use of various doses of the compound by the regression method as the ED50, that is, the dose in mg/kg of the compound which could antagonise the animal's immobility time by 50%.

The mark [5] stands for this setting: po, retest 24 h after training, read-out: Reversal of the amnesia (% vs controls), as the increase in the Step Down Latency.

In the case of `N[C@@H](CCC(=O)O)C(=O)NC1CCCCCC1` [Compound 20], in experiment [1], the “Activity in inhibiting the binding of glutamate (in words)” value is “considerable activity in inhibiting the binding of the glutamate” and the IC50 (usually the concentration needed to halve the response being measured) was found to be 14.4 µM. Also, in experiment [2], the change in vivo at 0.1 mg/kg amounted to 7%, the change in vivo at 1 mg/kg came to 20%, the change in vivo at 10 mg/kg came out at 36% and the ED30 was 4.2 mg/kg. Also, the “Activity in increasing the avoidance time (in words)” value in experiment [2] is reported as “considerable activity in increasing the avoidance time”. For the same compound, in experiment [3] (setting [5]), the change in vivo at 3 mg/kg amounted to 15%, the change in vivo at 10 mg/kg worked out at 41% and the change in vivo at 30 mg/kg is 61%. In experiment [3] (po), the ED50 worked out at 17.3 mg/kg. Besides, in experiment [4], the inhibition in vivo at 3 mg/kg came to 0%, the inhibition in vivo at 10 mg/kg stood at 11%, the inhibition in vivo at 30 mg/kg came to 52% and the ED50 was 36.1 mg/kg.

In turn, `N[C@@H](CC(=O)O)C(=O)NCCC12CC3CC(CC(C3)C1)C2` [Compound 43] gave an IC50 in experiment [1] of 33.5 µM. For the same compound, in experiment [2], the change in vivo at 0.1 mg/kg worked out at 10%, the change in vivo at 1 mg/kg is 16%, the change in vivo at 10 mg/kg turned out to be 29% and the ED30 was determined as 16.9 mg/kg. For the same compound, the “Antiamnesic activity (in words)” value in experiment [3] is given as “less active”. In addition, the change in vivo at 0.3 mg/kg in experiment [3] (po, 0.3 mg/kg OS, retest 24 h after training, read-out: Reversal of the amnesia (% vs controls), as the increase in the Step Down Latency) worked out at 13%. In experiment [3] (setting [5]), the change in vivo at 3 mg/kg amounted to 19% and the change in vivo at 30 mg/kg came out at 53%. For the same compound, in experiment [3] (po), the ED50 is 38.3 mg/kg. Further, in experiment [4], the inhibition in vivo at 1 mg/kg amounted to 0%, the inhibition in vivo at 3 mg/kg was found to be 34%, the inhibition in vivo at 10 mg/kg is 60% and the inhibition in vivo at 30 mg/kg was 93%. In addition, in experiment [4], the “Antidepressant activity (in words)” value is listed as “antidepressant effect of the same order of magnitude as the comparison drug used, amitriptyline” and the ED50 was 6.4 mg/kg.

In turn, `N[C@H](CCC(=O)O)C(=O)NCCC12CC3CC(CC(C3)C1)C2` [Compound 17] returned an IC50 in experiment [1] of 312 µM. In experiment [2], the change in vivo at 0.1 mg/kg is 0%, the change in vivo at 1 mg/kg turned out to be 0%, the change in vivo at 10 mg/kg was 0% and the “Activity in increasing the avoidance time (in words)” value was “inactive”. The “Antiamnesic activity (in words)” value in experiment [3] was “completely inactive”. Besides, in experiment [3] (setting [5]), the change in vivo at 0.1 mg/kg amounted to 0%, the change in vivo at 1 mg/kg came out at 14% and the change in vivo at 10 mg/kg stood at 10%. Moreover, in experiment [4], the inhibition in vivo at 3 mg/kg was 7%, the inhibition in vivo at 10 mg/kg was found to be 12%, the inhibition in vivo at 30 mg/kg was determined as 0% and the “Antidepressant activity (in words)” value is “inactive”. The “ED50 (dose antagonising immobility time by 50%)” value in experiment [4] was “Inactive”.

In turn, `CC1(C)CCC(NC(=O)[C@H](N)CCC(=O)O)CC1` [Compound 24] displayed an IC50 in experiment [1] greater than 1000 µM. In experiment [2], the change in vivo at 0.1 mg/kg is 8%, the change in vivo at 1 mg/kg was 0%, the change in vivo at 10 mg/kg is 0% and the “Activity in increasing the avoidance time (in words)” value was “inactive”. Besides, the “Antiamnesic activity (in words)” value in experiment [3] was “completely inactive”. Also, in experiment [3] (setting [5]), the change in vivo at 0.1 mg/kg was 0%, the change in vivo at 1 mg/kg amounted to 0% and the change in vivo at 10 mg/kg came out at 11%. Besides, in experiment [4], the inhibition in vivo at 3 mg/kg was 0%, the inhibition in vivo at 10 mg/kg was determined as 16%, the inhibition in vivo at 30 mg/kg was 19% and the “Antidepressant activity (in words)” value is “inactive”. Moreover, the “ED50 (dose antagonising immobility time by 50%)” value in experiment [4] was “Inactive”.

On to `N[C@@H](CCC(=O)O)C(=O)NCCC12CC3CC(CC(C3)C1)C2` [Compound 16], for which, in experiment [1], the “Activity in inhibiting the binding of glutamate (in words)” value was “considerable activity in inhibiting the binding of the glutamate” and the IC50 came out at 15 µM. In experiment [2], the change in vivo at 0.1 mg/kg stood at 11%, the change in vivo at 1 mg/kg worked out at 21%, the change in vivo at 10 mg/kg came to 57% and the ED30 came to 1 mg/kg. The “Activity in increasing the avoidance time (in words)” value in experiment [2] is given as “considerable activity in increasing the avoidance time”. Besides, the “Antiamnesic activity (in words)” value in experiment [3] is on record as “particularly remarkable”. In experiment [3] (setting [5]), the change in vivo at 0.1 mg/kg was 0%, the change in vivo at 1 mg/kg was 47%, the change in vivo at 3 mg/kg was determined as 46% and the change in vivo at 10 mg/kg turned out to be 50%. For the same compound, in experiment [3] (setting [5]), the change in vivo at 30 mg/kg was 73%. The ED50 in experiment [3] (po) is 4.6 mg/kg. For the same compound, in experiment [4], the inhibition in vivo at 1 mg/kg stood at 15%, the inhibition in vivo at 3 mg/kg turned out to be 46%, the inhibition in vivo at 10 mg/kg is 77% and the inhibition in vivo at 30 mg/kg came out at 98%. For the same compound, in experiment [4], the “Antidepressant activity (in words)” value was “antidepressant effect of the same order of magnitude as the comparison drug used, amitriptyline” and the ED50 was determined as 3.9 mg/kg.
